Test results published in US4323567A, “Arylmalonamido-1-oxadethiacephalosporins” (priority 1976, dated 1982).
In brackets after ≈: the same amount, converted by molar mass.

What was measured:
Experiment in all cases: Minimal inhibitory concentration, nutrient agar plate
Escherichia coli H = assay type: cell-based; conditions: pH 7, read-out: Minimal inhibitory concentration
E. coli JC-2 = assay type: cell-based; conditions: Escherichia coli, JC2, pH 7, read-out: Minimal inhibitory concentration
E. coli 377 = assay type: cell-based, Escherichia coli; conditions: Escherichia coli, 377, pH 7, read-out: Minimal inhibitory concentration
E. coli 73 = assay type: cell-based, Escherichia coli; conditions: Escherichia coli, 73, pH 7, read-out: Minimal inhibitory concentration
[1] = test system: Serratia marsescens 13880; assay type: cell-based; conditions: Serratia, 13880, pH 7, read-out: Minimal inhibitory concentration
Klebsiella pneumoniae = assay type: cell-based; conditions: pH 7, read-out: Minimal inhibitory concentration
Klebsiella sp. 363 = assay type: cell-based; conditions: SP.363, pH 7, read-out: Minimal inhibitory concentration
Enterobacter cloacae 233 = assay type: cell-based; conditions: Enterobacter cloacae, 233, pH 7, read-out: Minimal inhibitory concentration
Proteus mirabilis PR-4 = assay type: cell-based; conditions: PR4, pH 7, read-out: Minimal inhibitory concentration
P. morganii No. 9 = assay type: cell-based, Proteus morganii; conditions: Morganella morganii, NO.9, pH 7, read-out: Minimal inhibitory concentration
P. vulgaris No. 3 = assay type: cell-based; conditions: Proteus vulgaris, NO.3, pH 7, read-out: Minimal inhibitory concentration
P. vulgaris CN-329 = assay type: cell-based; conditions: Proteus vulgaris, CN329, pH 7, read-out: Minimal inhibitory concentration
[2] = test system: Pseudomonas aeruginosa Denken; assay type: cell-based; conditions: pH 7, read-out: Minimal inhibitory concentration
Ps. aeruginosa 25619 = assay type: cell-based, Pseudomonas aeruginosa; conditions: Pseudomonas aeruginosa, 25619, pH 7, read-out: Minimal inhibitory concentration
Ps. aeruginosa 24 = assay type: cell-based, Pseudomonas aeruginosa; conditions: Pseudomonas aeruginosa, 24, pH 7, read-out: Minimal inhibitory concentration

CO[C@@]1(NC(=O)C(C(=O)O)c2ccc(OC(=O)NC(N)=O)cc2)C(=O)N2C(C(=O)O)=C(CSc3nnnn3C)CO[C@@H]21 (stereo partly drawn) [III-27, 7β-(α-p-ureidocarbonyloxyphenyl-α-carboxyacetamido)-7α-methoxy-3-(1-methyltetrazol-5-yl)thiomethyl--oxadethia-3-cephem-4-carboxylic acid]
MIC (Escherichia coli H): 0.05 µg/mL (≈ 0.0824 µM) | MIC (E. coli JC-2): 0.2 µg/mL (≈ 0.33 µM) | MIC (E. coli 377): 0.78 µg/mL (≈ 1.29 µM) | MIC (E. coli 73): 0.78 µg/mL (≈ 1.29 µM) | MIC [1]: 3.13 µg/mL (≈ 5.16 µM) | MIC (Klebsiella pneumoniae): 0.39 µg/mL (≈ 0.643 µM) | MIC (Klebsiella sp. 363): 0.2 µg/mL (≈ 0.33 µM) | MIC (Enterobacter cloacae 233): 0.78 µg/mL (≈ 1.29 µM) | MIC (Proteus mirabilis PR-4): 0.2 µg/mL (≈ 0.33 µM) | MIC (P. morganii No. 9): 0.2 µg/mL (≈ 0.33 µM) | MIC (P. vulgaris No. 3): 0.39 µg/mL (≈ 0.643 µM) | MIC (P. vulgaris CN-329): 0.2 µg/mL (≈ 0.33 µM) | MIC [2]: > 100 µg/mL | MIC (Ps. aeruginosa 25619): 12.5 µg/mL (≈ 20.6 µM) | MIC (Ps. aeruginosa 24): 50 µg/mL (≈ 82.4 µM)
